# Substitutions are numbered along the chain they refer to. Active and inactive are the calls of the source. The calls are words filed in the database; no cut-off is given here.
# Tests used:
# [1] = target: T1, Muscarinic acetylcholine receptor M1 (Homo sapiens, UniProt P11229); experiment: Antagonist activity at human muscarinic M1 receptor expressed in CHO cells assessed as inhibition of acetylcholine-induced calcium mobilization by fluorescence assay; type: functional, cell-based
# T1 sequence (P11229 whole entry): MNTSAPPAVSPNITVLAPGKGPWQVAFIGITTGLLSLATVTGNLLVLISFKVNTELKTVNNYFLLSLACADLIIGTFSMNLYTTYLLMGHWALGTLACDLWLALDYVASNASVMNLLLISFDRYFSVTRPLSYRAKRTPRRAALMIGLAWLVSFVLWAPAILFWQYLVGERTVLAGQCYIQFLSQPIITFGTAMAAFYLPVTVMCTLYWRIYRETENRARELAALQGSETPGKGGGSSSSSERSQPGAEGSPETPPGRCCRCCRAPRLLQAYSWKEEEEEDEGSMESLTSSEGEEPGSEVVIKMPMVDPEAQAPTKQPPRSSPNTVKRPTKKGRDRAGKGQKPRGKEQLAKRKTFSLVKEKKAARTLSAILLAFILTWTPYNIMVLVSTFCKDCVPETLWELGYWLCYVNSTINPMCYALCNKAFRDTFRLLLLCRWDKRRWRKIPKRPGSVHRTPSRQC
# [2] = Clearance in iv dosed Sprague-Dawley rat; type: ADME, organism-based; details: in vivo
# [3] = target: Muscarinic acetylcholine receptor M3 (Homo sapiens, UniProt P20309); experiment: Antagonist activity at human muscarinic M3 receptor expressed in CHO cells assessed as inhibition of acetylcholine-induced calcium mobilization by fluorescence assay; type: functional, cell-based
# [4] = Oral bioavailability in Sprague-Dawley rat at 10 mg/kg; type: ADME, organism-based; details: in vivo
# [5] = target: T2, Muscarinic acetylcholine receptor M2 (Homo sapiens, UniProt P08172); experiment: Antagonist activity at human muscarinic M2 receptor expressed in CHO cells assessed as inhibition of acetylcholine-induced calcium mobilization by fluorescence assay; type: functional, cell-based
# T2 sequence (P08172 whole entry): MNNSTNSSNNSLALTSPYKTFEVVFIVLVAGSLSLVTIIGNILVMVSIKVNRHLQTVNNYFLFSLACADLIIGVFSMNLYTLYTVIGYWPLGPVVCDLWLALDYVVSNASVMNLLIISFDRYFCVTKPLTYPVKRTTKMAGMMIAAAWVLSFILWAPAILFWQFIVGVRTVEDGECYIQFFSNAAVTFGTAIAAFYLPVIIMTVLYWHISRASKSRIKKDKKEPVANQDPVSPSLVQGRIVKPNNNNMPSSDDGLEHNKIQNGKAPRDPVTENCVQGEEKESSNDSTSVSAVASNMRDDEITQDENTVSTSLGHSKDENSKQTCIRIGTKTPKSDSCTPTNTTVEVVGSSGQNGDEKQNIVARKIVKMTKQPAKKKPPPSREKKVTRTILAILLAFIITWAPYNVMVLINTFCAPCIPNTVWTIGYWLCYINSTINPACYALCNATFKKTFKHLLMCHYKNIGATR
# Rattus norvegicus = experiment: Half life in iv dosed Sprague-Dawley rat; type: ADME, organism-based; details: in vivo
# [6] = target: T3, Muscarinic acetylcholine receptor M4 (Homo sapiens, UniProt P08173); experiment: Antagonist activity at human muscarinic M4 receptor expressed in CHO cells assessed as inhibition of acetylcholine-induced calcium mobilization by fluorescence assay; type: functional, cell-based
# T3 sequence (P08173 whole entry): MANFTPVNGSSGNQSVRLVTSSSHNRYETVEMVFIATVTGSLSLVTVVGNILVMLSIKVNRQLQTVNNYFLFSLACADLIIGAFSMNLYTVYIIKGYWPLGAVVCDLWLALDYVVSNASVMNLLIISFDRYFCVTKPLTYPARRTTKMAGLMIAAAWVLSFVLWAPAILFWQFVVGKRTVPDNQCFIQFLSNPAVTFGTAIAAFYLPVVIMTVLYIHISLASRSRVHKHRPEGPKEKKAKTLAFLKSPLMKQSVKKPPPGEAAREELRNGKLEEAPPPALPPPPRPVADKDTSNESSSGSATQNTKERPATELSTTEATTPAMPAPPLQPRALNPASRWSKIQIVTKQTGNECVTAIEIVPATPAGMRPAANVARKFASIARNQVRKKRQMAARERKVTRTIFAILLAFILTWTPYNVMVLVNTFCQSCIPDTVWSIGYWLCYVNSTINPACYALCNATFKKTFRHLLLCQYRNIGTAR
# [7] = target: T4, Muscarinic acetylcholine receptor M1 (Rattus norvegicus, UniProt P08482); experiment: Antagonist activity at rat muscarinic M1 receptor expressed in CHO cells assessed as inhibition of acetylcholine-induced calcium mobilization by fluorescence assay; type: functional, cell-based
# T4 sequence (P08482 whole entry): T1 sequence (P11229 whole entry) with A5V, T254S, P309S, R320K, A337G, I413V
# [8] = target: T5, Muscarinic acetylcholine receptor M5 (Homo sapiens, UniProt P08912); experiment: Antagonist activity at human muscarinic M5 receptor expressed in CHO cells assessed as inhibition of acetylcholine-induced calcium mobilization by fluorescence assay; type: functional, cell-based
# T5 sequence (P08912 whole entry): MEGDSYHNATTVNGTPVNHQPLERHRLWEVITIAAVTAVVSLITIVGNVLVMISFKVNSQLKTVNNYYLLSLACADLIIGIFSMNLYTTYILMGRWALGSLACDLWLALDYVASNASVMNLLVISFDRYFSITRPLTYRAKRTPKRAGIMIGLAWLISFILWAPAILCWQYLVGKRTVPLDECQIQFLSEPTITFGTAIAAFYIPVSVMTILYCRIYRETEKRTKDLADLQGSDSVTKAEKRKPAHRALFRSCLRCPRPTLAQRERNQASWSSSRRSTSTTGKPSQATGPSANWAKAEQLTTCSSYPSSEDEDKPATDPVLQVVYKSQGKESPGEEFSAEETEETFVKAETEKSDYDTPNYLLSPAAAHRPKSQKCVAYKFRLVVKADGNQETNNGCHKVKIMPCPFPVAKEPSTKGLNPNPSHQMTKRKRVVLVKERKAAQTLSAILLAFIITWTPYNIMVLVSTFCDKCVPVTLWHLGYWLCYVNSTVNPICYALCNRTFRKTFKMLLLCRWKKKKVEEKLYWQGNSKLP
# [9] = target: T6, Muscarinic acetylcholine receptor M1 (Homo sapiens) (UniProt P11229); experiment: Antagonist activity at human muscarinic M1 receptor expressed in CHO cells assessed as residual activity at 30 uM by fluorescence assay; type: functional, cell-based
# T6 sequence (whole entry): T1 sequence (P11229 whole entry)
# [10] = target: T6, Muscarinic acetylcholine receptor M1 (Homo sapiens); experiment: Inhibition of human muscarinic M1 receptor expressed in CHO cells assessed as inhibition of acetylcholine-induced calcium mobilization at 30 uM by fluorescence assay; type: functional, cell-based
# [11] = target: T6, Muscarinic acetylcholine receptor M1 (Homo sapiens); experiment: Ratio of ML012 IC50 to compound IC50 for human muscarinic M1 receptor
# Muscarinic acetylcholine receptor M3, sequence (P20309 whole entry): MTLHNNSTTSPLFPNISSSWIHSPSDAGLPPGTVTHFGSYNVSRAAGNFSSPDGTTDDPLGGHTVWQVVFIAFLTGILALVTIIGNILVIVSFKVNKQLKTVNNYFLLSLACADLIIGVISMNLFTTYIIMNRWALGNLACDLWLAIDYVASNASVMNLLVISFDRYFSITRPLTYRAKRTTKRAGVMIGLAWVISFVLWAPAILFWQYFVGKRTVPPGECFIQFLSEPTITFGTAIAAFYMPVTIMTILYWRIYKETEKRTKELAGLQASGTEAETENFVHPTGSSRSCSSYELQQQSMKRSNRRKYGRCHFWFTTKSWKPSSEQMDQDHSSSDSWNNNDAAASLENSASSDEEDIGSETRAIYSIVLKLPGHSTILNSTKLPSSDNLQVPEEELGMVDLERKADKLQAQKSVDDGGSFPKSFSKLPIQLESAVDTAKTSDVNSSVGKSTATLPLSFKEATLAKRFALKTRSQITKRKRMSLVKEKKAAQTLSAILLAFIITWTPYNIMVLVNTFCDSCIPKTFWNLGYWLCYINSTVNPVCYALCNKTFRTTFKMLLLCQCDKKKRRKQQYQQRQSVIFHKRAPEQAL
SMILES,IC50 [1],also measured
O=C(CCNS(=O)(=O)c1cccc2nsnc12)N1CCN(c2cccc(F)n2)CC1,> 10 µM,
O=C(CCNS(=O)(=O)c1ccc2nsnc2c1)N1CCN(c2ccncc2)CC1,> 10 µM,
O=C(CCNS(=O)(=O)c1ccc(F)c2nonc12)N1CCN(c2ccc(Br)cn2)CC1,4.8 µM,
O=C(CCNS(=O)(=O)c1cccc2ncccc12)N1CCN(c2ccncc2)CC1,0.4 µM,clearance [2]: 77 mL/min/kg; IC50 [3]: > 30 µM; bioavailability [4]: < 10%; IC50 [5]: > 30 µM; t1/2 (Rattus norvegicus): 40 min; IC50 [6]: > 30 µM; IC50 [7]: 0.18 µM; IC50 [8]: > 30 µM
O=C(CCNS(=O)(=O)c1cccc2nsnc12)N1CCN(c2ncccn2)CC1,> 10 µM,
Cc1cnccc1N1CCN(C(=O)CCNS(=O)(=O)c2cccc3nsnc23)CC1,2 µM,
CN(CCC(=O)N1CCN(c2ccncc2)CC1)S(=O)(=O)c1cccc2nsnc12,> 10 µM,
O=C(CCNS(=O)(=O)c1cccc2nsnc12)N1CCN(c2ccncc2)CC1,0.69 µM,IC50 [7]: 0.24 µM
O=C(CCNS(=O)(=O)c1cccc2nsnc12)N1CCN(c2ncc(Cl)cn2)CC1,> 10 µM,
O=C(C(F)CNS(=O)(=O)c1cccc2nonc12)N1CCN(c2ccncc2)CC1 (racemic),,Activity [9]: 25%
Cc1ccc2nonc2c1S(=O)(=O)NCCC(=O)N1CCN(c2ccncc2)CC1,> 10 µM,
Cc1ccnc(N2CCN(C(=O)CCNS(=O)(=O)c3cccc4nsnc34)CC2)c1,> 10 µM,
O=C(CCNS(=O)(=O)c1cccc2ncccc12)N1CCN(c2ccc(Br)cn2)CC1,2.1 µM,
O=S(=O)(NCCCN1CCN(c2ccncc2)CC1)c1cccc2nsnc12,> 10 µM,Activity [9]: 17%
O=C(CCNS(=O)(=O)c1cccc2nsnc12)N1CCN(c2ccccn2)CC1,> 10 µM,
O=C(CCNS(=O)(=O)c1cccc2ccccc12)N1CCN(c2ccc(Br)cn2)CC1,> 10 µM,
C[C@@H](CC(=O)N1CCN(c2ccncc2)CC1)NS(=O)(=O)c1cccc2nonc12,,inhibition [10]: 30%
O=C(CCNS(=O)(=O)c1cccc2scnc12)N1CCN(c2ccncc2)CC1,> 10 µM,
O=C(CCNS(=O)(=O)c1cccc2nsnc12)N1CCN(c2ccnc(Cl)c2)CC1,> 10 µM,
COc1cccc(S(=O)(=O)NCCC(=O)N2CCN(c3ccc(Br)cn3)CC2)c1,> 10 µM,
O=C(CCNS(=O)(=O)c1cccc2cccnc12)N1CCN(c2ccc(Br)cn2)CC1,> 10 µM,
O=C(CCNS(=O)(=O)c1cccc2nsnc12)N1CCN(c2ccc(Br)cn2)CC1,0.32 µM,Ratio IC50 [11]: 2
Cc1ccc2nsnc2c1S(=O)(=O)NCCC(=O)N1CCN(c2ccncc2)CC1,> 10 µM,
Cc1cccc(N2CCN(C(=O)CCNS(=O)(=O)c3cccc4nsnc34)CC2)n1,> 10 µM,
O=C(CCNS(=O)(=O)c1cccc2nsnc12)N1CCN(c2nc3ccccc3o2)CC1,> 10 µM,
C[C@H](CC(=O)N1CCN(c2ccncc2)CC1)NS(=O)(=O)c1cccc2nonc12,,inhibition [10]: inactive

# Now from value to compound, other results behind:
IC50 [1],SMILES,also measured
> 10 µM,O=C(CCNS(=O)(=O)c1cccc2nsnc12)N1CCN(c2ccnc(F)c2)CC1,
> 10 µM,CN(C)c1cccc2c(S(=O)(=O)NCCC(=O)N3CCN(c4ccncc4)CC3)cccc12,
> 10 µM,Cc1ccc2nonc2c1S(=O)(=O)NCCC(=O)N1CCN(c2ccc(Br)cn2)CC1,
> 10 µM,O=C(CCNS(=O)(=O)c1cccc2nsnc12)N1CCN(c2nccs2)CC1,
> 10 µM,O=C(CCNS(=O)(=O)c1cccc2nsnc12)N1CCN(c2cccc(Cl)n2)CC1,
1.1 µM,O=C(CCNS(=O)(=O)c1cccc2nonc12)N1CCN(c2ccc(Br)cn2)CC1,
> 10 µM,O=C(CCNS(=O)(=O)c1cccc(-n2cnnn2)c1)N1CCN(c2ccncc2)CC1,
> 10 µM,O=C(CCNS(=O)(=O)c1cccc2nsnc12)N1CCN(c2nc3ccccc3s2)CC1,
4.5 µM,O=C(CCNS(=O)(=O)c1cccc2nsnc12)N1CCN(c2cc(Cl)ccn2)CC1,
> 10 µM,CC(=O)Nc1nc(C)c(S(=O)(=O)NCCC(=O)N2CCN(c3ccc(Br)cn3)CC2)s1,
> 10 µM,O=C(CCNS(=O)(=O)c1c(Cl)ccc2nonc12)N1CCN(c2ccc(Br)cn2)CC1,
2.6 µM,O=C(CCNS(=O)(=O)c1cccc2nonc12)N1CCN(c2ccncc2)CC1,
> 10 µM,O=C(CCNS(=O)(=O)c1cccnc1)N1CCN(c2ccncc2)CC1,

# — ChEMBL document CHEMBL1938324 (Bioorg Med Chem Lett, 2012)
